Reference: PMC5965259 (Journal of medicinal chemistry, 2018)

What follows are compounds tested on bloodstream form T. brucei Lister 427 (assay: ATP–bioluminescence-based bloodstream form T. brucei cell viability assay). Details: Trypanosoma brucei, 48 h, read-out: Tb427 EC50.

Structure (SMILES) | EC50
Cc1cc(Nc2cccc(S(F)(F)(F)(F)F)c2)nc(N)n1 [Compound 54, 6-Methyl-N^4-(3-(pentafluoro-λ^6-sulfaneyl)phenyl)pyrimidine-2,4-diamine] | 14 µM
Cc1cc(Nc2cccc(Cl)c2)nc(N)n1 [Compound 55, N^4-(3-Chlorophenyl)-6-methylpyrimidine-2,4-diamine] | 42 µM
Cc1cc(Nc2cccc(Br)c2)nc(N)n1 [Compound 56] | 22 µM
Cc1cc(Nc2cccc(F)c2)nc(N)n1 [Compound 57] | > 25 µM
CSc1cccc(Nc2cc(C)nc(N)n2)c1 [Compound 58] | > 25 µM
Cc1cc(Nc2ccccc2)nc(N)n1 [Compound 59] | > 25 µM
Cc1cc(Nc2cc(F)cc(F)c2)nc(N)n1 [Compound 60, N^4-(3,5-Difluorophenyl)-6-methylpyrimidine-2,4-diamine] | 70 µM
Cc1cc(Nc2cc(F)cc(Cl)c2)nc(N)n1 [Compound 61, N^4-(3-Chloro-5-fluorophenyl)-6-methylpyrimidine-2,4-diamine] | 17 µM
Cc1cc(Nc2cc(Br)c(F)c(Br)c2)nc(N)n1 [Compound 63, N^4-(3,5-Dibromo-4-fluorophenyl)-6-methylpyrimidine-2,4-diamine] | 4.6 µM
Cc1cc(Nc2cc(Cl)c(Cl)c(Cl)c2)nc(N)n1 [Compound 64, 6-Methyl-N^4-(3,4,5-trichlorophenyl)pyrimidine-2,4-diamine] | 4.5 µM
Cc1cc(Nc2cc(Cl)c(C)c(Cl)c2)nc(N)n1 [Compound 65, N^4-(3,5-Dichloro-4-methylphenyl)-6-methylpyrimidine-2,4-diamine] | 4.4 µM
Cc1cc(Nc2cc(Cl)c(Oc3ccccc3)c(Cl)c2)nc(N)n1 [Compound 66, N^4-(3,5-Dichloro-4-phenoxyphenyl)-6-methylpyrimidine-2,4-diamine] | 1.1 µM
Cc1cc(Nc2cc(Cl)c(O)c(Cl)c2)nc(N)n1 [Compound 67, 4-((2-Amino-6-methylpyrimidin-4-yl)amino)-2,6-dichlorophenol] | 13 µM
Cc1cc(Nc2cc(Cl)c(OC(F)F)c(Cl)c2)nc(N)n1 [Compound 68, N^4-(3,5-Dichloro-4-(difluoromethoxy)phenyl)-6-methylpyrimidine-2,4-diamine] | 4.5 µM
Cc1cc(Nc2cc(Cl)c(N(C)C)c(Cl)c2)nc(N)n1 [Compound 69, N^4-(3,5-Dichloro-4-(dimethylamino)phenyl)-6-methylpyrimidine-2,4-diamine] | 5.8 µM
Cc1cc(Nc2cc(Cl)c(N3CCOCC3)c(Cl)c2)nc(N)n1 [Compound 70, N^4-(3,5-Dichloro-4-morpholinophenyl)-6-methylpyrimidine-2,4-diamine] | 18 µM
Cc1cc(Nc2cc(Cl)c(N3CCCCC3)c(Cl)c2)nc(N)n1 [Compound 71, N^4-(3,5-Dichloro-4-(piperidin-1-yl)phenyl)-6-methylpyrimidine-2,4-diamine] | 2.1 µM
Cc1cc(Nc2cc(Cl)c(F)c(Cl)c2F)nc(N)n1 [Compound 73, N^4-(3,5-Dichloro-2,4-difluorophenyl)-6-methylpyrimidine-2,4-diamine] | 10 µM
Cc1cc(Nc2ccccc2C)nc(N)n1 [Compound 77] | > 25 µM
CSc1ccccc1Nc1cc(C)nc(N)n1 [Compound 78] | > 25 µM

Structure (SMILES) | EC50
Cc1cc(Nc2ccccc2Br)nc(N)n1 [Compound 79] | > 25 µM
Cc1cc(Nc2ccc(Cl)cc2C)nc(N)n1 [Compound 82] | > 25 µM
CCc1ccc(Nc2cc(C)nc(N)n2)cc1 [Compound 86] | 19 µM
Cc1cc(Nc2ccc(C(C)C)cc2)nc(N)n1 [Compound 87] | 11 µM
Cc1cc(Nc2ccc(C(F)(F)F)cc2)nc(N)n1 [Compound 88] | 15 µM
Cc1cc(Nc2ccc(-c3cc(Cl)cc(Cl)c3)cc2)nc(N)n1 [Compound 89, N^4-(3′,5′-Dichloro-[1,1′-biphenyl]-4-yl)-6-methylpyrimidine-2,4-diamine] | 1 µM
Cc1cc(Nc2cc(Cl)cc(-c3ccc(F)cc3)c2)nc(N)n1 [Compound 91, N^4-(5-Chloro-4′-fluoro-[1,1′-biphenyl]-3-yl)-6-methylpyrimidine-2,4-diamine] | 1.6 µM
Cc1cc(Nc2cc(Cl)cc(-c3ccc(Cl)cc3)c2)nc(N)n1 [Compound 92, N^4-(4′,5-Dichloro-[1,1′-biphenyl]-3-yl)-6-methylpyrimidine-2,4-diamine] | 2.2 µM
COc1ccc(-c2cc(Cl)cc(Nc3cc(C)nc(N)n3)c2)cc1 [Compound 93, N^4-(5-Chloro-4′-methoxy-[1,1′-biphenyl]-3-yl)-6-methylpyrimidine-2,4-diamine] | 4.5 µM
Cc1ccc(-c2cc(Cl)cc(Nc3cc(C)nc(N)n3)c2)cc1 [Compound 94, N^4-(5-Chloro-4′-methyl-[1,1′-biphenyl]-3-yl)-6-methylpyrimidine-2,4-diamine] | 4.3 µM
Cc1cc(Nc2cc(Cl)cc(-c3ccc(C(F)(F)F)cc3)c2)nc(N)n1 [Compound 95, N^4-(5-Chloro-4′-(trifluoromethyl)-[1,1′-biphenyl]-3-yl)-6-methylpyrimidine-2,4-diamine] | 2 µM
Cc1cc(Nc2cc(Cl)cc(-c3ccc(C#N)cc3)c2)nc(N)n1 [Compound 96, 3′-((2-Amino-6-methylpyrimidin-4-yl)amino)-5′-chloro-[1,1′-biphenyl]-4-carbonitrile] | 1 µM
CC(=O)c1ccc(-c2cc(Cl)cc(Nc3cc(C)nc(N)n3)c2)cc1 [Compound 97, 1-(3′-((2-Amino-6-methylpyrimidin-4-yl)amino)-5′-chloro-[1,1′-biphenyl]-4-yl)ethan-1-one] | 6.7 µM
Cc1cc(Nc2cc(Cl)cc(-c3ccc(O)cc3)c2)nc(N)n1 [Compound 98, 3′-((2-Amino-6-methylpyrimidin-4-yl)amino)-5′-chloro-[1,1′-biphenyl]-4-ol] | 9.7 µM
Cc1cc(Nc2cc(Cl)cc(-c3ccc(-c4ccccc4)cc3)c2)nc(N)n1 [Compound 99, N^4-(5-Chloro-[1,1′:4′,1″-terphenyl]-3-yl)-6-methylpyrimidine-2,4-diamine] | 0.91 µM
Cc1cc(Nc2cc(Cl)cc(-c3ccc(N(C)C)cc3)c2)nc(N)n1 [Compound 100, N^4-(5-Chloro-4′-(dimethylamino)-[1,1′-biphenyl]-3-yl)-6-methylpyrimidine-2,4-diamine] | 5 µM
Cc1cc(Nc2cc(Cl)cc(-c3ccccc3Cl)c2)nc(N)n1 [Compound 101, N^4-(2′,5-Dichloro-[1,1′-biphenyl]-3-yl)-6-methylpyrimidine-2,4-diamine] | 8.5 µM
Cc1cc(Nc2cc(Cl)cc(-c3cccc(Cl)c3)c2)nc(N)n1 [Compound 102, N^4-(3′,5-Dichloro-[1,1′-biphenyl]-3-yl)-6-methylpyrimidine-2,4-diamine] | 1.9 µM
Cc1cc(Nc2cc(Cl)cc(-c3ccc(Cl)c(Cl)c3)c2)nc(N)n1 [Compound 103, 6-Methyl-N^4-(3′,4′,5-trichloro-[1,1′-biphenyl]-3-yl)pyrimidine-2,4-diamine] | 2.9 µM
Cc1cc(Nc2cc(Cl)cc(-c3ccc(Cl)c(C(F)(F)F)c3)c2)nc(N)n1 [Compound 105, N^4-(4′,5-Dichloro-3′-(trifluoromethyl)-[1,1′-biphenyl]-3-yl)-6-methylpyrimidine-2,4-diamine] | 1.5 µM
